Drawing on US10703727B2, “Method for preparing substituted 3-(2-anilino-1-cyclohexyl-1H-benzimidazol-5-yl)propanoic acid derivatives” (Bayer Pharma Aktiengesellschaft, priority 2015, dated 2020), this text covers IC50 for eight compounds.

Assay [1] addresses T1, IDH1 R132H (Homo sapiens, UniProt O75874, R132H). As to the kind of experiment: Inhibition of IDH1 R132H in a biochemical assay (NADPH consumption, luminescence). The following applies: 1.5 nM enzyme, 1 μM NADPH, 250 μM α-KG, 32° C., 30 minutes. As for the experimental part: NADPH consumption is determined by luminescence.
Test compounds were assayed in a concentration range of 0.002 to 10 μM. The final DMSO concentration was 2.4%.
The luminescence was determined using a luminescence reader (10 seconds measurement time, 1 second integration period, 30% sensitivity). The drop in luminescence is proportional to the activity of mIDH1. IC50 values were determined by interpolation from plots of the relative luminescence against the inhibitor concentration.

For assay [2], the target named is T1, IDH1 R132H. As to the kind of experiment: Cellular assay: 2-HG in medium of LN229 R132H cells overexpressing mutated IDH. Type of assay: cell-based. As to conditions: 24 hours. The procedure: Concentrations of (2R)-2-hydroxyglutarate (2HG) were determined in a medium of a cell line having an overexpession of the mutated isocitrate dehydrogenase protein. mIDH catalyses the NADPH-dependent reduction of alpha-ketoglutarate to 2-HG. […] The cells were obtained using trypsin and placed in 96-well titre plates. The cells were incubated overnight at 37° C. in 5% CO2. On the next day, test compounds were added to the cells. The final concentration of DMSO was 0.1% and DMSO controls were used. The titre plates were then placed in an incubator for 24 hours.
2-HG was measured using the method published by Balss et al. (Acta Neuropathol (2012) 124: 883-891). HClO4 was added to each well and the titre plates were centrifuged. Aliquots were removed and incubated with hydroxyglutarate dehydrogenase (HGDH), diaphorase, NAD+ and resazurin. The conversion of resazurin to resorufin was determined by fluorescence spectroscopy at Ex 540 nm Em 600 nm. The increase in the fluorescence signal is proportional to formation of 2-HG. IC50 values were determined by interpolation from plots of the relative fluorescence against the inhibitor concentration.

T1 sequence (O75874 whole entry R132H): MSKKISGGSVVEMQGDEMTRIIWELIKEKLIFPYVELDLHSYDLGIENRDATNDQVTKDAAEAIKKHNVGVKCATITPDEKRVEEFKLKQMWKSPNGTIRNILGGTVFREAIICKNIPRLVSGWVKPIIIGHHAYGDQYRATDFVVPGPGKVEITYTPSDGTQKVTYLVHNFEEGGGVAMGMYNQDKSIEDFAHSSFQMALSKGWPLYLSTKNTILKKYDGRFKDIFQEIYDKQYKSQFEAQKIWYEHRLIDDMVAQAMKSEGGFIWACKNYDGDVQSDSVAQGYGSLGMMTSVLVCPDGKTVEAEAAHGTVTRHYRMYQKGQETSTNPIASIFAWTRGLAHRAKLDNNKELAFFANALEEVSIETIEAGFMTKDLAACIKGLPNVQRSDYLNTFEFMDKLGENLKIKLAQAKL

The IC50 is the midpoint of a concentration-inhibition curve. Regarding `CC(C)c1ccc(Nc2nc3cc(CCC(=O)O)ccc3n2C2CCCC(C)(C)C2)cc1` (racemic) [(±) 3-(1-[3,3-Dimethylcyclohexyl]-2-{[4-(propan-2-yl)phenyl]amino}-1H-benzimidazol-5-yl)propanoic acid], the results for the IC50 in assay [1] and in assay [2] were 50 nM and 400 nM, respectively.
On the same counts, the results for `CC(C)Oc1ccc(Nc2nc3cc(CCC(=O)O)ccc3n2C2CCCC(C)(C)C2)cc1` (racemic) [(±) 3-(1-[3,3-Dimethylcyclohexyl]-2-{[4-(propan-2-yloxy)phenyl]amino}-1H-benzimidazol-5-yl)propanoic acid] are 300 nM and 850 nM.
Consider `CC1(C)CCCC(n2c(Nc3ccc(OC(F)(F)F)cc3)nc3cc(CCC(=O)O)ccc32)C1` (racemic) [(±) 3-(1-[3,3-dimethylcyclohexyl]-2-{[4-(trifluoromethoxy)phenyl]amino}-1H-benzimidazol-5-yl)propanoic acid], for which the figures for the IC50 in assay [1] and in assay [2] were 60 nM and 850 nM, respectively.
On the same counts, the results for `CC(C)c1ccc(Nc2nc3cc(CCC(=O)O)ccc3n2[C@H]2C[C@@H](C)CC(C)(C)C2)cc1` (racemic) [(±) 3-(2-{[4-(Propan-2-yl)phenyl]amino}-1-[(cis)-3,3,5-trimethylcyclohexyl]-1H-benzimidazol-5-yl)propanoic acid] are 20 nM and 80 nM.
On the same counts, the results for `CC(C)Oc1ccc(Nc2nc3cc(CCC(=O)O)ccc3n2[C@H]2C[C@@H](C)CC(C)(C)C2)cc1` (racemic) [(±) 3-(2-{[4-(Propan-2-yloxy)phenyl]amino}-1-[(cis)-3,3,5-trimethylcyclohexyl]-1H-benzimidazol-5-yl)propanoic acid] are 60 nM and 400 nM.
The like results for `C[C@@H]1C[C@H](n2c(Nc3ccc(C(F)(F)F)cc3)nc3cc(CCC(=O)O)ccc32)CC(C)(C)C1` (racemic) [(±) 3-(2-{[4-(Trifluoromethyl)phenyl]amino}-1-[(cis)-3,3,5-trimethylcyclohexyl]-1H-benzimidazol-5-yl)propanoic acid] were, in that order, 40 nM and 70 nM.
For the compound `COC(=O)CCc1ccc2c(c1)nc(Nc1ccc(C(C)C)cc1)n2[C@H]1C[C@@H](C)CC(C)(C)C1` (racemic) [(±) Methyl 3-(2-{[4-(propan-2-yl)phenyl]amino}-1-[(cis)-3,3,5-trimethylcyclohexyl]-1H-benzimidazol-5-yl)propanoate], the IC50 came out at 170 nM in assay [1] and 90 nM in assay [2].
For `COC(=O)CCc1ccc2c(c1)nc(Nc1ccc(OC(F)(F)F)cc1)n2[C@H]1C[C@@H](C)CC(C)(C)C1` (racemic) [(±) Methyl 3-(2-{[4-(trifluoromethoxy)phenyl]amino}-1-[(cis)-3,3,5-trimethylcyclohexyl]-1H-benzimidazol-5-yl)propanoate], the IC50 in assay [1] and in assay [2] was 300 nM each time.
